Values quoted from earlier work as cited in US11364187B2, “Compositions and methods for preventing and reversing aspects of aging” (CENTERS FOR AGE CONTROL, INC., priority 2017, dated 2022).
Blank lines part the entries; values can stand above or below the molecule they belong to.

How the values were obtained:
[1] = 60 year old human equivalent mice, one week of injections
[2] = human body
[3] = topically applied
[4] = molecular target: T1, SIRT1 enzyme (Homo sapiens, UniProt Q96EB6); settings: in vitro
T1 sequence (Q96EB6 1-747): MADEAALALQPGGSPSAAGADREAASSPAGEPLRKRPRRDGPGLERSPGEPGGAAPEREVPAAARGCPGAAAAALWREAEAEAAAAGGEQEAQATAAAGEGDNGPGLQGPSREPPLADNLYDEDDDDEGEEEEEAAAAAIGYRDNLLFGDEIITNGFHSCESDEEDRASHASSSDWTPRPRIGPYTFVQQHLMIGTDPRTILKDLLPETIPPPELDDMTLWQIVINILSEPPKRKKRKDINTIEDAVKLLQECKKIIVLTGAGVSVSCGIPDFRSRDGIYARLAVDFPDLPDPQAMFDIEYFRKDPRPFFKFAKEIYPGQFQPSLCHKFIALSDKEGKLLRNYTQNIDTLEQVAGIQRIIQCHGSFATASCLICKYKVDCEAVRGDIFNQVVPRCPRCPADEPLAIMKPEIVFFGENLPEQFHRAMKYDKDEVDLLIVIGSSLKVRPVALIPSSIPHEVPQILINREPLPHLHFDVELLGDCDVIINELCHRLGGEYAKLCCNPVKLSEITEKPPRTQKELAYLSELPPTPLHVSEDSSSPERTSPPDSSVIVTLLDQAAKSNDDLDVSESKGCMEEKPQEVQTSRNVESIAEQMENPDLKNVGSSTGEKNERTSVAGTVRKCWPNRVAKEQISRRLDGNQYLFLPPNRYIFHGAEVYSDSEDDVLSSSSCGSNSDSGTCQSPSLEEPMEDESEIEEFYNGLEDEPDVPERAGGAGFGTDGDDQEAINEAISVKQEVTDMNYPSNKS

SMILES: NC(=O)c1ccc[n+]([C@@H]2O[C@H](COP(=O)([O-])O)[C@@H](O)[C@H]2O)c1 [NMN, nicotinamide mono nucleotide]
muscle tissue age appearance [1]: muscle tissue resembling 20 years old

absorption [2]: about 80%
absorption relative to resveratrol [2]: about four times more effectively
SMILES: COc1cc(/C=C/c2ccc(O)cc2)cc(OC)c1 [Pterostilbene]

SMILES: NC(=O)c1cccnc1 [nicotinamide]
wrinkles and dark spots on skin [3]: reduces the wrinkles and dark spots on skin
effect on SIRT1 enzyme [4]: direct inhibitor of SIRT1 enzyme in vitro
